{"source": "paper PMC11809415", "about": "(The Journal of Cell Biology, 2025)", "key": {"[1]": {"system": "actin-dependent morphogenesis", "conditions": "certain experimental systems: yeast, Drosophila, C. elegans, zebrafish, mammalian cells; ref Courtemanche et al., 2016; Spracklen et al., 2014; Ono, 2024; Xu and Du, 2021; Flores et al., 2019; cited from earlier work", "from_the_text": "(§1) To minimize steric clashes of large probes, small fluorophore-labeled peptides have been developed. The most commonly used is Lifeact, a 17-amino acid peptide derived from the N-terminus of the Saccharomyces cerevisiae actin-binding protein 140 (Abp140)."}, "actin filaments": {"system": "actin filaments", "conditions": "ref Belyy et al., 2020, Kumari et al.; cited from earlier work", "from_the_text": "as §1"}, "F-actin [2]": {"system": "F-actin", "experiment": "Actin bundling assay using low-speed centrifugation (10,000 g)", "format": "biochemical, rabbit skeletal muscle α-actin", "conditions": "for F-actin in the pellet: 10 μM actin filaments, 5 min RT, 10,000 g", "experimental": "(§2) Rabbit skeletal muscle α-actin was purified from muscle acetone powder (Pel-Freez Biologicals) as described in [Merino et al. (2018)] and stored in 50 μl aliquots at −70°C.\n8 μl of actin filaments at 10 μM were mixed with peptides at the specified concentration, incubated for 5 min at room temperature, and spun down at 10,000 g for 10 min at 4°C. Aliquots of the supernatant and resuspended pellet fractions were separated on SDS-polyacrylamide gels with 2,2,2-trichloroethanol ([Ladner-Keay et al., 2018]) and visualized with ultraviolet light."}, "[3]": {"system": "actin (ADP-ribosylation by TcART, Photorhabdus luminescens)", "experiment": "ADP-ribosylation of actin by TcART in presence of actin-binding peptides", "format": "biochemical, rabbit skeletal muscle α-actin", "conditions": "for ADP-ribosylation level: relative to no peptide = 1, […] actin, 314 pM TcART, 10 min 37°C", "experimental": "as §2\nTcART, the ADP-ribosyltransferase from P. luminescens Tc toxin, was purified from E. coli BL21-CodonPlus(DE3)-RIPL harboring the plasmid pB656 as described previously ([Belyy et al., 2022]).\nA total of 8-μl mixtures of 2 μg (4.8 μM final concentration) actin and actin-binding peptides at specified concentrations were preincubated for 5 min at room temperature in the buffer containing 1 mM NAD, 20 mM Tris pH 8, 150 mM NaCl, and 1 mM MgCl2. The ADP ribosylation reaction was initiated by the addition of 0.2 ng (314 pM) of TcART to the mixture. After 10 min of incubation at 37°C, the reaction was stopped by adding Laemmli sample buffer and heating the sample at 95°C for 5 min. The components of the mixture were separated by SDS-PAGE, blotted onto a polyvinylidene difluoride (PVDF) membrane using a Trans-Blot Turbo Transfer System (Bio-Rad), and visualized using a combination of the His-tagged ADP-ribose binding protein at the concentration of 0.01 mg/ml and HisProbe-HRP conjugate. The level of actin ADP-ribosylation was quantified by densitometry using ImageJ."}, "F-actin [4]": {"system": "F-actin", "experiment": "Cryo-EM of peptide mixed with F-actin", "format": "binding, rabbit skeletal muscle α-actin", "experimental": "as §2\nActin filaments were prepared as for cosedimentation assays. Shortly before plunging, F-actin was diluted to 6 µM with F-buffer. […] 3 μl of sample was applied onto a freshly glow-discharged copper R2/1 300 mesh grid (Quantifoil), blotted for 8 s on both sides with blotting force −15, and plunge-frozen in liquid ethane using the Vitrobot Mark IV system (Thermo Fisher Scientific) at 13°C and 100% humidity.\nThe datasets were collected using a Talos Arctica transmission electron microscope (Thermo Fisher Scientific) equipped with an XFEG at 200 kV using the automated data-collection software EPU version 2.7 (Thermo Fisher Scientific). Two images per hole with a defocus range of −0.5 to −2.5 µm were collected with a K3 detector (Gatan) operated in super-resolution mode. […] After motion correction was performed in Relion (RRID:SCR_016274) version 3.1, the micrographs were imported into Cryosparc for patch CTF estimation. […]\nBefore deposition, the structures were refined in real space in Phenix (RRID:SCR_014224) ([Liebschner et al., 2019]) with secondary structure and reference model restraints. The statistics presented in Table 1 were calculated by MolProbity (RRID:SCR_014226) ([Williams et al., 2018])."}, "cells": {"system": "cells", "conditions": "ref Vosatka et al., 2022; cited from earlier work", "from_the_text": "(§3) However, in Xenopus XTC cells, expr ..."}, "Drosophila": {"system": "Drosophila", "conditions": "ref Spracklen et al., 2014; cited from earlier work", "from_the_text": "as §3"}, "Xenopus XTC cells": {"system": "Xenopus XTC cells", "conditions": "ref Belin et al., 2014; cited from earlier work", "from_the_text": "as §3"}, "primary neurons": {"system": "primary neurons", "conditions": "ref Patel et al., 2017; cited from earlier work", "from_the_text": "as §3"}, "F-actin [5]": {"system": "F-actin", "conditions": "ref Melak et al., 2017; cited from earlier work", "from_the_text": "Phalloidin, a cyclic peptide derived from the fungus Amanita phalloides, was one of the first probes used for F-actin labeling ([Wehland et al., 1977]; [Wulf et al., 1979]). […] The need to visualize actin dynamics led to the development of genetically encoded fluorescent probes. Chimeras of green fluorescent protein ... || In live cell imaging experiments, F-tractin is typically used as a fusion of fluorescent proteins. […] However, a comparison of both markers has been largely limited to characterizations in cells ([Belin et al., 2014]; [Spracklen et al., 2014]; [Vosatka et al., 2022]). With structures of both probes in complex with F-actin available, we can now directly compare their actin interactions in atomic detail (Fig. 4, A–C). Both probes are at their core amphipathic helices that bind to overlapping interfaces of consecutive actin subunits, indicating a preference for “aged” A ..."}, "[6]": {"conditions": "ref Coluccio and Tilney, 1984; cited from earlier work", "from_the_text": "Phalloidin, a cyclic peptide derived from the fungus Amanita phalloides, was one of the first probes used for F-actin labeling ([Wehland et al., 1977]; [Wulf et al., 1979]). […] The need to visualize actin dynamics led to the development of genetically encoded fluorescent probes. Chimeras of green fluorescent protein ..."}}, "data": [{"substance": "Lifeact: 17-amino acid peptide derived from the N-terminus of Saccharomyces cerevisiae actin-binding protein 140 (Abp140) [reference compound]", "values": [{"measurement": "effect on actin-dependent morphogenesis", "setting": "[1]", "result": "dramatically altered actin-dependent morphogenesis"}, {"measurement": "competition for binding site on actin filaments", "setting": "actin filaments", "result": "competes with cofilin, myosin, and other actin-binding factors for the same binding site on actin filaments"}, {"measurement": "F-actin in the pellet", "setting": "F-actin [2]; peptide 10 µM, Repeat 1", "result": "0,07218"}, {"measurement": "F-actin in the pellet", "setting": "F-actin [2]; peptide 10 µM, Repeat 2", "result": "0,09382"}, {"measurement": "F-actin in the pellet", "setting": "F-actin [2]; peptide 10 µM, Repeat 3", "result": "0,137443"}, {"measurement": "F-actin in the pellet", "setting": "F-actin [2]; peptide 100 µM, Repeat 1", "result": "0,1046"}, {"measurement": "F-actin in the pellet", "setting": "F-actin [2]; peptide 100 µM, Repeat 2", "result": "0,117135"}, {"measurement": "F-actin in the pellet", "setting": "F-actin [2]; peptide 100 µM, Repeat 3", "result": "0,14654"}, {"measurement": "F-actin in the pellet", "setting": "F-actin [2]; peptide 1000 µM, Repeat 1", "result": "0,339777"}, {"measurement": "F-actin in the pellet", "setting": "F-actin [2]; peptide 1000 µM, Repeat 2", "result": "0,164721"}, {"measurement": "F-actin in the pellet", "setting": "F-actin [2]; peptide 1000 µM, Repeat 3", "result": "0,309232"}, {"measurement": "ADP-ribosylation level", "setting": "[3]; peptide 1 µM, Repeat 1", "result": "0,978733"}, {"measurement": "ADP-ribosylation level", "setting": "[3]; peptide 1 µM, Repeat 2", "result": "0,811616"}, {"measurement": "ADP-ribosylation level", "setting": "[3]; peptide 1 µM, Repeat 3", "result": "1,268379"}, {"measurement": "ADP-ribosylation level", "setting": "[3]; peptide 3 µM, Repeat 1", "result": "0,825802"}, {"measurement": "ADP-ribosylation level", "setting": "[3]; peptide 3 µM, Repeat 2", "result": "0,671345"}, {"measurement": "ADP-ribosylation level", "setting": "[3]; peptide 3 µM, Repeat 3", "result": "1,323177"}, {"measurement": "ADP-ribosylation level", "setting": "[3]; peptide 10 µM, Repeat 1", "result": "0,671724"}, {"measurement": "ADP-ribosylation level", "setting": "[3]; peptide 10 µM, Repeat 2", "result": "1,132312"}, {"measurement": "ADP-ribosylation level", "setting": "[3]; peptide 10 µM, Repeat 3", "result": "0,970817"}, {"measurement": "ADP-ribosylation level", "setting": "[3]; peptide 30 µM, Repeat 1", "result": "0,313245"}, {"measurement": "ADP-ribosylation level", "setting": "[3]; peptide 30 µM, Repeat 2", "result": "0,438167"}, {"measurement": "ADP-ribosylation level", "setting": "[3]; peptide 30 µM, Repeat 3", "result": "0,331448"}, {"measurement": "ADP-ribosylation level", "setting": "[3]; peptide 100 µM, Repeat 1", "result": 0}, {"measurement": "ADP-ribosylation level", "setting": "[3]; peptide 100 µM, Repeat 2", "result": "0,032044"}, {"measurement": "ADP-ribosylation level", "setting": "[3]; peptide 100 µM, Repeat 3", "result": "0,093063"}, {"measurement": "effect on TcART modification of F-actin (in words)", "setting": "[3]; peptides up to 100 µM", "result": "inhibited TcART activity in a similar dose-dependent manner"}]}, {"substance": "MARPRGAGPCSPGLERAPRRSVGELRLLFEARCAAVAAAAAAG [F-tractin, 43 amino acid peptide, residues 10–52 of rat inositol 1,4,5-trisphosphate 3-kinase A; EGFP fusion in cell assays]", "values": [{"measurement": "F-tractin occupancy on F-actin", "setting": "F-actin [4]; estimated from alignment-free 3D classification, 100 μM peptide", "result": "~ 50%"}, {"measurement": "appearance of actin filaments by cryo-EM", "setting": "F-actin [4]; preformed F-actin incubated with 100 μM peptide", "result": "large heterogeneous bundles instead of single actin filaments"}, {"measurement": "cell stiffness and cell migration", "setting": "cells", "result": "increase in cell stiffness and reduction in cell migration"}, {"measurement": "effect on fertility and actin in Drosophila oogenesis", "setting": "Drosophila", "result": "without causing female sterility or significant actin defects"}, {"measurement": "effect of expression on actin structures", "setting": "Xenopus XTC cells", "result": "induced radial actin bundles and longer filopodia"}, {"measurement": "reporting on F-actin organization in primary neurons", "setting": "primary neurons", "result": "without notable effects on cell function"}, {"measurement": "actin bundling (in words)", "setting": "F-actin [2]; in vitro, up to 100 µM, low-speed centrifugation and cryo-EM", "result": "strong bundling effect on F-actin"}, {"measurement": "F-actin in the pellet", "setting": "F-actin [2]; peptide 1 µM, Repeat 1", "result": "0,052087"}, {"measurement": "F-actin in the pellet", "setting": "F-actin [2]; peptide 1 µM, Repeat 2", "result": "0,032888"}, {"measurement": "F-actin in the pellet", "setting": "F-actin [2]; peptide 1 µM, Repeat 3", "result": "0,047528"}, {"measurement": "F-actin in the pellet", "setting": "F-actin [2]; peptide 10 µM, Repeat 1", "result": "0,092603"}, {"measurement": "F-actin in the pellet", "setting": "F-actin [2]; peptide 10 µM, Repeat 2", "result": "0,600815"}, {"measurement": "F-actin in the pellet", "setting": "F-actin [2]; peptide 10 µM, Repeat 3", "result": "0,323365"}, {"measurement": "F-actin in the pellet", "setting": "F-actin [2]; peptide 100 µM, Repeat 1", "result": "0,999376"}, {"measurement": "F-actin in the pellet", "setting": "F-actin [2]; peptide 100 µM, Repeat 2", "result": "0,989657"}, {"measurement": "F-actin in the pellet", "setting": "F-actin [2]; peptide 100 µM, Repeat 3", "result": "0,931572"}]}, {"substance": "Phalloidin", "values": [{"measurement": "affinity and selectivity for F-actin", "setting": "F-actin [5]", "result": "high affinity and selectivity for F-actin"}, {"measurement": "membrane permeability", "setting": "[6]", "result": "low membrane permeability"}]}]}
